Source: publication PMC6941144 (ACS chemical biology, 2019)

What was measured:
[1] = system: HIV-1 protease 2Mut (V82F, I84V); test: Enzyme inhibition; format: biochemical; conditions: primary active site mutations (2 mutations); abstract
HIV-1 protease 9Mut-A71V = HIV-1 protease 9Mut-A71V (Human immunodeficiency virus type 1 group M subtype B, UniProt P12497, A559V/G504E/I501V/I572V/K533I/L521F/M534I/Q495K/V520I/V570F); conditions: relative to 8Mut; ΔG = RTln[Ki]
HIV-1 protease 9Mut-L76V = HIV-1 protease 9Mut-L76V (Human immunodeficiency virus type 1 group M subtype B, UniProt P12497, G504E/I501V/I572V/K533I/L521F/L564V/M534I/Q495K/V520I/V570F); conditions: relative to 8Mut; ΔG = RTln[Ki]
HIV-1 protease 10Mut = HIV-1 protease 10Mut (Human immunodeficiency virus type 1 group M subtype B, UniProt P12497, A559V/G504E/I501V/I572V/K533I/L521F/L564V/M534I/Q495K/V520I/V570F); conditions: relative to 8Mut; ΔG = RTln[Ki]
HIV-1 protease 11Mut = HIV-1 protease 11Mut (Human immunodeficiency virus type 1 group M subtype B, UniProt P12497, A559V/G504E/I501V/I542L/I572V/K533I/L521F/L564V/M534I/Q495K/V520I/V570F); conditions: 11Mut vs WT

CC(C)CN(C[C@@H](O)[C@H](Cc1ccccc1)NC(=O)O[C@H]1CO[C@H]2OCC[C@H]21)S(=O)(=O)c1ccc(N)cc1 [DRV, Darunavir]
loss in potency [1]: ~ 50 fold
ΔΔG9Mut-A71V (change in free energy of inhibitor binding) (HIV-1 protease 9Mut-A71V): 0.35 ± 0.07 kcal/mol
ΔΔG9Mut-L76V (change in free energy of inhibitor binding) (HIV-1 protease 9Mut-L76V): 1.55 ± 0.10 kcal/mol
ΔΔG10Mut (change in free energy of inhibitor binding) (HIV-1 protease 10Mut): 1.45 ± 0.05 kcal/mol
decrease in inhibition compared to WT (HIV-1 protease 11Mut): 152,000 fold
